“And” between values parts separate entries of the source, which are not always exact repeats. Equal values may be shown once.
System: SkM
Experiment: Lipidomic profiling of skeletal muscle (quadriceps) of mice on chow or HFD
Format: in vivo
Excerpt: Male C57BL6/J mice were obtained from the Animal Resources Centre in Perth (WA, Australia). […] Treatment was commenced at the same time as mice were randomised to dietary groups. The experiments were approved by the UNSW animal care and ethics committee (ACEC 15/48B), and followed guidelines issued by the National Health and Medical Research Council of Australia.
Lipids were extracted from frozen tissue samples or cells using a two-phase procedure with methyl-tert-butyl ether (MTBE)/methanol/water (10:3:2.5, v/v/v)[67]. Frozen tissue samples (~20 mg) were homogenized in 0.2 mL methanol containing 0.01% butylated hydroxytoluene (BHT), using a Precellys 24 homogenizer and Cryolys cooling unit (Bertin Technologies) with CK14 (1.4-mm ceramic) beads. The homogenates were spiked with an internal standard mixture comprising 5 nmole 19:0/19:0 phosphatidylcholine and 2 nmole each of 17:0/17:0 phosphatidylethanolamine, 17:0/17:0 phosphatidylserine, 17:0/17:0 d5-diacylglycerol, 17:0/17:0 phosphatidylglycerol, 14:0/14:0/14:0/14:0 cardiolipin, 18:1/12:0 SM, 18:1/17:0 ceramide, 18:1/12:0 glucosylceramide, 18:1/12:0 lactosylceramide, 18:1/12:0 sulfatide (all from Avanti Polar Lipids, USA), and 17:0/17:0/17:0 TAG (Cayman Chemical, USA), then transferred to 10 mL screw cap glass tubes. The homogenization tubes containing beads were then washed with another 0.3 mL methanol, and this wash was combined with the first methanol extract, after which 1.7 mL MTBE was added and the samples were sonicated in an ice-cold sonicating water bath (Thermoline Scientific, Australia) for 30 min. Phase separation was induced by addition of 417 µL of mass spectrometry-grade water followed by vortexing and centrifugation at 1000 × g for 10 min. The upper organic phase was collected into 5 mL glass tubes. The lower phase was re-extracted by adding 1 mL MTBE, 300 μL methanol, and 250 μL water. The organic phases were combined in the 5 mL glass tubes and dried under vacuum in a Savant SC210 SpeedVac (Thermo Scientific), then reconstituted in 500 μL methanol and stored at −20 °C until analysis.
Lipidomic profiling was performed on a QExactive Plus mass spectrometer with heated electrospray ionization (HESI) probe and a Dionex UltiMate 2000 LC pump (Thermo Fisher Scientific). Extracts were resolved on a 2.1 × 100 mm Waters Acquity C18 UPLC column (1.7 µm […]), using a binary gradient in which mobile phase A consisted of acetonitrile:water (60:40), 10 mM ammonium formate, 0.1% formic acid; and mobile phase B was isopropanol:acetonitrile (90:10), 10 mM ammonium formate, 0.1% formic acid[68]. The flow rate was 260 µL/min and column oven 55 °C. Data was acquired in full scan/data-dependent MS^2 mode (full scan resolution 70,000 FWHM, scan range 400–1200 m/z). The ten most abundant ions in each cycle were subjected to MS^2 using an isolation window of 1.4 m/z, collision energy 30 eV, resolution 17,500, maximum integration time 110 ms and dynamic exclusion window 10 s. An exclusion list of background ions was used based on a solvent blank. LipidSearch v4.1.30 software (ThermoFisher Scientific) was used for chromatogram alignment, peak identification and integration. Each lipid peak was manually verified for column elution time and characteristic fragment ions. Data were then exported to an Excel spreadsheet for normalisation of each lipid to its class-specific internal standard, and lipid concentrations were calculated relative to the internal standard.
Data were log transformed, then subjected to two-tailed t-tests adjusted for multiple comparisons using GraphPad PRISM (Benjamini, Krieger and Yekutieli correction, Q = 1%).

[1] = 5 mg/kg daily, 4–6 weeks, HFD group

Structure (SMILES): C[C@@](N)(CO)CCc1ccc(OCc2ccc(Cl)c(Cl)c2)cc1 [P053, (S)-2-amino-4-(4-(3,4-dichlorobenzyloxy)phenyl)-2-methylbutan-1-ol]
- HexCer content of SkM (5 mg/kg daily, 4–6 weeks): not significantly affected
- levels of common phospholipids in SkM (5 mg/kg daily, 4–6 weeks): did not affect
- total ceramide content of SkM (5 mg/kg daily, 4–6 weeks): reduced total ceramide content
- 42:2 SM in SkM [1]: significantly increased
- very long chain ceramides (C22:0, C24:0 and C24:1) in SkM [1]: significantly increased
- mean levels of 36:1 SM in SkM, lower than vehicle (5 mg/kg daily, 4–6 weeks, both diets, not statistically significant): 13%
- Ceramide 18:1/16:0 content of skeletal muscle (Chow + P053, individual mice): 3.10 and 1.77 (2×) and 2.74 and 1.05 and 2.59 and 2.04 and 2.73 and 4.80 and 1.58 and 1.47 and 1.10 and 1.69 and 1.86 and 1.78 and 2.17 and 1.48 (2×)
- Ceramide 18:1/18:0 content of skeletal muscle (Chow + P053, individual mice): 20.71 and 17.58 and 23.00 and 14.06 and 16.77 and 18.40 (2×) and 20.26 and 15.08 and 13.86 and 23.04 and 23.06 and 23.01 and 18.78 and 15.44 and 14.24 and 19.21 and 15.87
- Ceramide 18:1/20:0 content of skeletal muscle (Chow + P053, individual mice): 0.50 and 0.38 (2×) and 0.51 and 0.33 and 0.44 and 0.57 and 0.41 and 0.18 (2×) and 0.21 and 0.17 (2×) and 0.22 and 0.15 (2×) and 0.13 and 0.20
- Ceramide 18:1/22:0 content of skeletal muscle (Chow + P053, individual mice): 1.58 and 1.18 and 1.27 and 1.31 and 1.33 and 1.24 and 2.02 and 1.70 and 0.82 and 0.97 and 0.93 and 1.37 and 0.85 and 1.53 and 1.04 (2×) and 0.62 and 0.77
- Ceramide 18:1/24:0 content of skeletal muscle (Chow + P053, individual mice): 2.05 and 1.75 and 2.39 and 1.84 (2×) and 2.22 and 3.08 and 3.05 and 1.41 and 1.81 and 2.08 and 2.47 and 0.10 and 2.48 and 0.14 and 1.18 and 1.87 and 1.61
- Ceramide 18:1/24:1 content of skeletal muscle (Chow + P053, individual mice): 5.19 and 4.17 and 5.42 and 4.06 and 4.86 and 4.12 and 6.25 and 6.63 and 2.73 and 3.16 and 3.08 and 4.65 and 3.22 and 4.69 and 3.70 and 2.46 and 3.14 and 2.75
- Ceramide 18:2/18:0 content of skeletal muscle (Chow + P053, individual mice): 1.63 and 1.36 and 1.77 and 0.81 and 1.04 and 1.34 and 1.47 (2×) and 1.60 and 2.11 and 1.87 and 1.91 and 1.85 and 1.31 and 1.49 and 1.75 and 1.71 and 1.50
- SM 34:1 content of skeletal muscle (Chow + P053, individual mice): 155.00 and 75.29 and 64.44 and 51.84 and 157.48 and 87.87 and 37.17 and 61.63 and 56.39 and 26.64 and 21.61 and 27.95 and 26.10 and 29.76 and 25.67 and 36.05 and 29.79 and 28.45
- SM 36:1 content of skeletal muscle (Chow + P053, individual mice): 408.35 and 391.75 and 244.36 and 209.60 and 257.92 and 303.73 and 198.39 and 281.99 and 211.03 and 160.27 and 169.50 and 130.04 and 157.61 and 130.34 and 143.84 and 173.19 and 158.59 and 154.00
- SM 36:2 content of skeletal muscle (Chow + P053, individual mice): 5.68 and 10.86 and 10.80 and 2.69 and 6.07 and 9.49 and 5.32 and 8.00 and 6.39 and 4.78 and 4.58 and 3.87 and 4.48 and 3.64 and 4.59 and 6.14 and 4.52 and 4.32
- SM 38:1 content of skeletal muscle (Chow + P053, individual mice): 13.22 and 12.48 and 5.72 and 6.13 and 5.91 and 5.41 and 17.63 and 9.33 and 1.53 and 1.84 and 1.68 and 1.39 and 1.34 and 1.51 and 1.41 and 1.37 and 2.56 and 1.65
- SM 40:1 content of skeletal muscle (Chow + P053, individual mice): 28.35 and 29.55 and 12.61 and 11.97 and 14.98 and 15.26 and 24.07 and 17.95 and 17.87 and 21.14 and 17.97 and 25.28 and 16.09 and 25.29 and 21.99 and 14.69 and 26.69 and 18.42
- SM 40:2 content of skeletal muscle (Chow + P053, individual mice): 2.18 and 3.25 and 1.19 and 1.06 and 1.18 and 0.98 and 4.74 and 3.00 and 1.89 and 2.04 and 2.38 and 2.68 and 1.85 and 2.58 and 2.52 and 1.52 and 2.57 and 1.93
- SM 42:1 content of skeletal muscle (Chow + P053, individual mice): 26.96 and 32.88 and 11.84 and 14.58 and 16.55 and 13.22 and 32.58 and 20.65 and 17.62 and 18.82 and 16.13 and 27.77 and 16.56 and 31.99 and 21.25 and 13.55 and 28.43 and 16.15
- SM 42:2 content of skeletal muscle (Chow + P053, individual mice): 78.98 and 85.87 and 38.45 and 39.28 and 45.06 and 42.02 and 67.24 and 61.76 and 56.89 and 58.53 and 52.21 and 80.69 and 50.18 and 74.84 and 63.29 and 51.49 and 78.04 and 54.99
- SM 42:3 content of skeletal muscle (Chow + P053, individual mice): 11.26 and 12.44 and 7.12 and 5.50 and 7.16 and 6.69 and 11.58 and 9.28 and 9.04 and 9.58 and 8.81 and 14.49 and 7.86 and 11.12 and 9.61 and 8.30 and 13.11 and 8.65
- total SkM TAG content, lower than HFD vehicle group (HFD + P053): 60%
- Ceramide 18:1/16:0 content of skeletal muscle (HFD + P053, individual mice): 1.10 and 2.17 and 1.83 and 1.12 (2×) and 2.90 and 1.46 and 0.87 (2×) and 1.73 and 3.22 and 1.34 and 1.89 and 1.27 and 1.41 and 1.14 and 1.04 and 0.99 and 1.01
- Ceramide 18:1/18:0 content of skeletal muscle (HFD + P053, individual mice): 14.13 and 13.78 and 15.90 and 15.58 and 21.96 and 19.36 and 13.96 and 15.88 and 24.31 and 19.32 and 17.61 and 21.70 and 17.37 and 21.41 and 15.56 and 12.14 and 18.07 and 11.49 and 13.22
- Ceramide 18:1/20:0 content of skeletal muscle (HFD + P053, individual mice): 0.45 (2×) and 0.54 and 0.57 and 0.65 and 0.48 and 0.42 and 0.40 and 0.77 and 0.10 (2×) and 0.08 (2×) and 0.06 (2×) and 0.07 (2×) and 0.05 and 0.09
- Ceramide 18:1/22:0 content of skeletal muscle (HFD + P053, individual mice): 1.69 and 1.43 and 1.68 and 1.85 and 2.17 and 1.53 and 1.50 and 1.46 and 2.26 and 1.14 and 1.16 and 1.47 and 1.36 and 1.00 and 1.18 and 0.98 and 1.30 and 1.04 and 1.72
- Ceramide 18:1/24:0 content of skeletal muscle (HFD + P053, individual mice): 1.53 (2×) and 1.50 and 1.85 and 1.78 and 2.27 and 1.57 (2×) and 1.81 and 2.48 and 1.41 and 1.31 and 1.65 and 1.24 and 1.83 and 1.21 and 1.67 and 1.20 and 1.73
- Ceramide 18:1/24:1 content of skeletal muscle (HFD + P053, individual mice): 4.07 and 3.37 and 3.91 and 3.88 and 4.88 and 3.55 (2×) and 3.81 and 5.60 and 2.28 and 2.44 and 3.08 and 2.82 and 2.33 and 2.75 and 2.49 and 2.86 and 2.35 and 3.30
- Ceramide 18:2/18:0 content of skeletal muscle (HFD + P053, individual mice): 0.85 (2×) and 1.05 and 0.95 and 1.06 and 1.53 and 1.34 and 0.98 and 1.27 and 2.27 and 1.58 and 1.22 and 1.29 (2×) and 0.73 and 0.92 and 1.11 and 0.97 and 0.74
- SM 34:1 content of skeletal muscle (HFD + P053, individual mice): 56.88 and 99.05 and 291.61 and 79.88 and 179.42 and 129.66 and 30.83 and 225.53 and 214.19 and 48.41 and 47.17 and 48.35 and 37.16 and 22.64 and 38.24 and 42.99 and 33.41 and 36.54 and 32.79
